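Cells were grown in 96-well plates and exposed to each compound for 48 hours at five concentrations; endpoints were interpolated linearly between bracketing concentrations, or set to the highest concentration if not reached. GI50: concentration for 50% inhibition of growth. Definition used: TGI = concentration required for complete inhibition of growth.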
Key:
Assay in all cases: NCI-60 cell line screen, 48 h
EKVX NSCLC = test system: EKVX NSCLC
HL-60(TB) leukemia = test system: HL-60(TB) leukemia
HT29 colon = test system: HT29 colon
NCI-H23 lung = test system: NCI-H23 lung
PC-3 prostate = test system: PC-3 prostate
RPMI-8226 leukemia = test system: RPMI-8226 leukemia
RXF 393 renal = test system: RXF 393 renal
SF-295 CNS = test system: SF-295 CNS
SK-MEL-28 melanoma = test system: SK-MEL-28 melanoma
SNB-19 CNS = test system: SNB-19 CNS
COLO 205 colon = test system: COLO 205 colon
HCT-116 colon = test system: HCT-116 colon
LOX IMVI melanoma = test system: LOX IMVI melanoma

SMILES | TGI (EKVX NSCLC) [µM] | TGI (HL-60(TB) leukemia) [µM] | TGI (HT29 colon) [µM] | TGI (NCI-H23 lung) [µM] | TGI (PC-3 prostate) [µM] | TGI (RPMI-8226 leukemia) [µM] | TGI (RXF 393 renal) [µM] | TGI (SF-295 CNS) [µM] | TGI (SK-MEL-28 melanoma) [µM] | TGI (SNB-19 CNS) [µM] | TGI (COLO 205 colon) [µM] | TGI (HCT-116 colon) [µM] | TGI (LOX IMVI melanoma) [µM] | GI50 (HCT-116 colon) [µM] | GI50 (HL-60(TB) leukemia) [µM] | GI50 (HT29 colon) [µM] | GI50 (PC-3 prostate) [µM] | GI50 (SF-295 CNS) [µM] | GI50 (SK-MEL-28 melanoma) [µM] | GI50 (SNB-19 CNS) [µM]
Cc1cc(C)c(NC(=O)/C=C/c2ccccc2)c(C)c1 | > 100 | > 100 | > 100 | > 100 | > 100 | > 100 | > 100 | > 100 | > 100 | > 100 | – | – | – | – | – | – | – | – | – | –
O=C1/C(=C/c2ccc(Cl)cc2)N=C(c2ccccc2)N1/N=C/c1ccccc1O | 21.3 | > 100 | > 100 | > 100 | 28 | 24.8 | 29.5 | 29.7 | 62.9 | > 100 | > 100 | 15.2 | 31.4 | – | – | – | – | – | – | –
CCP(=O)(CC)C(Cl)(Cl)C(O)C(Cl)(Cl)Cl (stereo not drawn) | – | > 100 | > 100 | > 100 | > 100 | > 100 | – | > 100 | > 100 | > 100 | > 100 | > 100 | > 100 | – | – | – | – | – | – | –
CN1C(=O)CN2C(Cl)(Cl)C2(c2ccccc2)c2cc(Cl)ccc21 (stereo not drawn) | > 100 | – | > 100 | > 100 | – | > 100 | > 100 | > 100 | > 100 | – | > 100 | > 100 | > 100 | – | – | – | – | – | – | –
NCCCn1c2c(c3ccc([N+](=O)[O-])cc3c1=O)C(=O)c1cc(F)ccc1-2 | – | 0.166 | 0.515 | – | 1.63 | – | – | 0.142 | 1.54 | 1.52 | – | 0.134 | – | < 0.0112 | < 0.016 | < 0.0153 | 0.0398 | 0.0157 | 0.229 | 0.0589
